{"source": "patent US8609870B2", "about": "“Treating various disorders using TrkB agonists” (Emory University, priority 2008, dated 2013)", "key": {"hippocampal neurons": {"system": "hippocampal neurons", "test": "Glutamate-triggered apoptosis in hippocampal neurons (MR(DEVD)2 / condensed nuclei)", "type": "cell-based", "conditions": "0.5 μM preincubated 30 min, then 50 μM glutamate 16 h", "experimental": "To create and test reporter cell lines. In order to identify small molecules that mimic BDNF and activate TrkB, TrkB stably transfected murine cell lines are created. The T48 and T62 cell lines are created by transfecting basal forebrain SN56 cells, which express negligible TrkB, with a TrkB expression construct. To test expression of TrkB, the cells are treated with BDNF, which is predicted to result in strong phosphorylation of Trk-490 and Akt activation in comparison to the TrkA NTR stably expressing T17 cell line indicating expression of TrkB. To test resistance to apoptosis, the SN56 cells and the T48 cell line are either untreated or treated with BDNF, and then are subjected to an apoptotic assay. The apoptotic assay involves treating the cells with 0.75 μM Staurosporine for 9 hours, and 1 hour before completing the experiment, the cells are treated with 10 μM MR (DEVD)2. The cells then are fixed with 4% paraformaldehyde for 15 minutes, washed with phosphate buffered saline (PBS), and incubated with Hoechst 33342 for 10 minutes. Cover slides are washed with PBS, mounted, and then the cells are examined using a fluorescent microscope to see which cells turn red upon caspase cleavage.\nTo compare the apoptosis inhibitory activity of identified active compounds, the compounds are preincubated with SN56 and T48 cells, and subsequently are subjected to the fluorescent apoptotic assay as described above. To examine whether these identified active compounds promote neuronal survival, hippocampal neurons are prepared and the cultures are pretreated with the identified active compounds for 30 minutes, followed by treatment with 50 μM glutamate for 16 hours.\nUsing a cell-based screen as described above in Example 1 (based on the anti-apoptotic action of TrkB signaling) and the chemical library from the Spectrum Collection (described above), 66 positive hits were generated, four of which were gedunin derivatives. […] In this assay, neurons with both cleaved caspase (MR (DEVD)2 red cells) and condensed nuclei (DAPI staining) were counted as apoptotic cells. […]"}, "TrkC": {"biological_target": "T1, TrkC (Homo sapiens, UniProt Q16288)", "T1 construct": "expressed in transfected cells; host or cells: HEK293", "T1 sequence (Q16288 32-839, species assumed)": "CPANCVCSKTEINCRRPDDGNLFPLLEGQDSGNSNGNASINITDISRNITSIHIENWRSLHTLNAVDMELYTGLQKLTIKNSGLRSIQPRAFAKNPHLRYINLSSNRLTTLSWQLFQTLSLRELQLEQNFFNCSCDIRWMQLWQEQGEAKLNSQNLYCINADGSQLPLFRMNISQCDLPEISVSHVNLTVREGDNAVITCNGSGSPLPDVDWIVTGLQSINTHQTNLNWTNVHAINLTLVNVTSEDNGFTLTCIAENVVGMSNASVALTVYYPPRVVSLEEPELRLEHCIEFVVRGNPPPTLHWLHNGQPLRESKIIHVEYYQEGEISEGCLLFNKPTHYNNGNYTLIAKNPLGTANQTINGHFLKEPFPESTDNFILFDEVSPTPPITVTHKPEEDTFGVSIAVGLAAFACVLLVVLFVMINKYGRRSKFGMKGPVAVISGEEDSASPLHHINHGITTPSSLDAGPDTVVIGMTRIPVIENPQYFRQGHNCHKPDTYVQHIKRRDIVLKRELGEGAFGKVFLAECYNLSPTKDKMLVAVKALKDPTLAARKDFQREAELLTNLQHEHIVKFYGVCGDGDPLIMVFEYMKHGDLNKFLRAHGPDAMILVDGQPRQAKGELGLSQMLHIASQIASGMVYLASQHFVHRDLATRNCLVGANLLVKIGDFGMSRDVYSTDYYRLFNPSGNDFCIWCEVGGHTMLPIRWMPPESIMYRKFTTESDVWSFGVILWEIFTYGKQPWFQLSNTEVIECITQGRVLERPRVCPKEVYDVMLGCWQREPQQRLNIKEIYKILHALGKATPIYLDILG", "test": "Tyrosine phosphorylation of TrkC in transfected HEK293 cells", "type": "cell-based", "from_the_text": "To determine if an identified active compound promotes tyrosine phosphorylation of the other Trk receptors, HEK293 cells are transfected with various Trk receptors, which is followed by treatment with the identified active compound. Treatment with an identified active compound that elicits tyrosine phosphorylation in the TrkB receptor but not in the TrkA or TrkC receptor indicates an active compound.\nTo determine whether deoxygedunin binds the intra-cellular domain (ICD) or extra-cellular domain (ECD) of the TrkB receptor, ligand binding assays with [^3H]-deoxygedunin were performed. […] The coprecipitated HA-TrkB was also prominently tyrosine phosphorylated (see FIG. 14, 3rd panel)."}, "TrkB": {"biological_target": "T2, TrkB (Mus musculus, UniProt P15209)", "T2 construct": "Brain lysates were prepared and analyzed by immunoblotting; from tissue; host or cells: mouse brain", "T2 sequence (P15209 32-821)": "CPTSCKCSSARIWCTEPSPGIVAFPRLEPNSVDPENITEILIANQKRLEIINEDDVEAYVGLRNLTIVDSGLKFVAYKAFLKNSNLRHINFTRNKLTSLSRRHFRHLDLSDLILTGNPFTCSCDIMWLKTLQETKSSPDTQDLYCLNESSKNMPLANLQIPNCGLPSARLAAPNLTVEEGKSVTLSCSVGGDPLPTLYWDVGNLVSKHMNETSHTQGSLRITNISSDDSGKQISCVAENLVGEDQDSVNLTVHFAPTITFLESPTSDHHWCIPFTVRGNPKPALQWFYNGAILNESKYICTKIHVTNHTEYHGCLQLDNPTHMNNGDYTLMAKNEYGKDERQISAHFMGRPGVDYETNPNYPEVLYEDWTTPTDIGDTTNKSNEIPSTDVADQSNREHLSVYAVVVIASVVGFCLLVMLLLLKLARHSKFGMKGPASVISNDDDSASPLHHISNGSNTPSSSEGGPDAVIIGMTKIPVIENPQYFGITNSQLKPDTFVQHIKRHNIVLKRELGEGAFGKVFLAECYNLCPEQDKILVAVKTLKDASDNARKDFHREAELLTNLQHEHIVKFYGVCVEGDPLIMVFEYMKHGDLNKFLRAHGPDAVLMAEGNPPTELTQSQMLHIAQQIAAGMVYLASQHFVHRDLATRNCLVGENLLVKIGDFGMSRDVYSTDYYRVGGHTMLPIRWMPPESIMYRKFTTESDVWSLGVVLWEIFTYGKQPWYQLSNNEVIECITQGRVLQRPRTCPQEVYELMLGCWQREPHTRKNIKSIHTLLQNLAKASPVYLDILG", "test": "TrkB activation in mouse brain after i.p. or oral administration", "type": "in vivo", "experimental": "Unless specifically described, brain tissues are fixed in 4% paraformaldehyde overnight followed by paraffin embedding. Sections of 5 μm are cut. For immunohistochemical staining, brain sections are deparaffinized in xylene and rehydrated in graded alcohols. Endogenous peroxidase activity are blocked by 3% hydrogen peroxide for 5 minutes and all slides are boiled in 10 mM sodium citrate buffer (pH 6.0) for 10 minutes. Phosphorylated Trk A, Trk A, phosphorylated Trk B, and Trk B are detected using specific antibodies and, e.g., a Zymed HistostainPlus AEC kit (Invitrogen; Carlsbad, Calif.). Slides then are counterstained with hematoxylin.\nTo assess whether an identified active compound provokes TrkB activation in the brain, mice are intraperitoneally injected with a dose of 5 mg/kg and analyzed at various time points. […] Further, whether the protein and mRNA levels of the neurotrophic receptors is altered after treatment with an identified active compound is measured.\nBoth Akt and Erk1/2 were robustly activated by these molecules as well). […] The minimal required drug concentration was about 100-250 nM (see FIG. 7, right panels). […] To assess whether deoxygedunin provokes TrkB activation in the brain, mice (i.p.) were injected with a dose of 5 mg/kg for various time points. […] To establish that deoxygedunin is orally bioactive in provoking TrkB activation, two to three month old C57BL/6J mice were orally injected with various doses of 7,8-dihydroxyflavone or deoxygedunin then sacrificed 2 to 4 hours after administration. Brain lysates were prepared and analyzed by immunoblotting (see FIG. 10)."}}}
{"smiles": "CC(=O)O[C@@H]1C[C@H]2C(C)(C)C(=O)C=C[C@]2(C)[C@H]2CC[C@]3(C)C(=CC(=O)O[C@H]3c3ccoc3)[C@@]21C", "note": "[deoxygedunin]", "values": [{"measurement": "protective effect (apoptosis inhibitory activity)", "setting": "hippocampal neurons", "value": "most robust protective effect"}, {"measurement": "tyrosine phosphorylation in TrkC", "setting": "TrkC", "value": "not in TrkA or TrkC receptor"}, {"measurement": "time after injection at which TrkB was phosphorylated in the brain", "setting": "TrkB; mice, 5 mg/kg i.p.", "value": 2, "unit": "h"}, {"measurement": "time of peak TrkB phosphorylation in the brain", "setting": "TrkB; mice, 5 mg/kg i.p.", "value": "4 to 8", "unit": "h"}, {"measurement": "blood-brain barrier penetration", "setting": "TrkB; mice, 5 mg/kg i.p., inferred from brain TrkB phosphorylation", "value": "penetrated the blood-brain barrier"}, {"measurement": "TrkB activation in hippocampus (immunohistochemistry staining)", "setting": "TrkB; mouse hippocampus upon treatment", "value": "robust TrkB activation in hippocampus"}]}
